Reference: patent US20030206968A1, “Fungicidal mixtures” (priority 1999, published 2003)

Experiments:
Assay type in all cases: in vivo
Blumeria graminis [1] = test: Greenhouse, Blumeria graminis on barley, 2 days curative; details: Example 29
Description: (§1) The trials are carried out under greenhouse (Examples 1 to 32) or field conditions (Examples 33 to 40) in residual or curative applications. The fungicides are applied in single treatments, or in a combination comprising an azolopyrimidine of formula I and a compound selected from the classes (A), (B) and (C) as defined above. The compounds are applied in form of an aqueous spray mix obtained from a concentrated formulation or the technical material.
(§2) 1. Seed is planted in 6 cm diameter plastic pots and maintained in the greenhouse.
(§3) 2. When the primary leaf is fully expanded in the case of cereals or several leaves are present in the case of dicots, formulated test compounds are sprayed with a three nozzle overhead fungicide sprayer to near run-off. Alternatively, a single nozzle overhead track sprayer is used for application of the compounds to cereals at a rate of 200 l/ha. Plants are then allowed to air-dry.
(§4) 3. Inoculation precedes treatment in the case of curative evaluations and follows treatment in case of residual evaluations. For inoculation of powdery mildew disease, plants are set up on greenhouse benches with bottom watering mats and inoculated by dusting them with conidia from infected plants. Between inoculation and treatment for curative evaluations and between treatment and inoculation for residual evaluations, plants are maintained in the greenhouse with bottom watering.
(§5) 4. Disease on the foliage as percent leaf area with disease symptoms/signs is evaluated about 7 days after inoculation. In the case of wheat, the tips and bases of the leaves are excluded from the evaluation. [formula]
(§6) 1. Technical compounds are formulated in a solvent/surfactant system consisting of 5% acetone and 0.05% Tween 20 in deionized water. Compounds are dissolved in acetone prior to addition of the water; the Tween 20 can be added through either the acetone or the water. Dilutions are made using the solvent/surfactant system. Formulated compounds are prepared using deionized water.
(§7) 2. Two kinds of controls are included: Plants treated with the solvent/surfactant solution and inoculated (Solvent Blank). Untreated plants which are inoculated (Inoculated Control).
(§8) Assessments of the diseases took place at the indicated day after the application of the compounds. Per cent infected leaf area infected was evaluated. The efficacy of the compounds/compounds mixtures to control the diseases was calculated by using the formula given above under item 4: […]
(§9) Synergy was calculated using the % disease control values of specific treatments for the two COLBY formula given hereinabove
Fungicidal efficacy of the mixture of (S)-Azolopyrimidine C in admixture with Fenhexamid (2 days curative) against Blumeria graminis on barley. The tank mixes were obtained from technical material of (S)-Azolopyrimidine C and Fenhexamid.
Fungicidal efficacy of the mixture of (S)-Azolopyrimidine C in admixture with Azoxystrobin or Trifloxystrobin (2 days curative) against Blumeria graminis on barley. The tank mixes were obtained from technical material of (S)-Azolopyrimidine C and Azoxystrobin or Trifloxystrobin.

Blumeria graminis [2] = test: Greenhouse, Blumeria graminis on wheat, 2 days curative; details: Example 27
Description: as §1, §2, §3, §4, §5, §6, §7, §8, §9
Fungicidal efficacy of the mixture of (S)-Azolopyrimidine C in admixture with Azoxystrobin or Trifloxystrobin (2 days curative) against Blumeria graminis on wheat. The tank mixes were obtained from technical material of (S)-Azolopyrimidine C and Azoxystrobin or Trifloxystrobin.

Puccinia recondita [3] = test: Greenhouse, Puccinia recondita on wheat, 2 days curative; details: Example 28
Description: as §1, §2, §3, §4
(§10) For inoculation of non-powdery mildew diseases, an aqueous spore suspension of the pathogen is applied to the plant and the plants are kept 1-2 days in a moist infection chamber before being returned to the greenhouse where they are maintained by bottom watering.
as §5, §6, §7, §8, §9
Fungicidal efficacy of the mixture of (S)-Azolopyrimidine C in admixture with Azoxystrobin or Trifloxystrobin (2 days curative) against Puccinia recondita on wheat. The tank mixes were obtained from technical material of (S)-Azolopyrimidine C and Azoxystrobin or Trifloxystrobin.

Blumeria graminis [4] = test: Greenhouse, Blumeria graminis on wheat, 4 days residual; details: Example 30
Description: as §1, §2, §3, §4, §5, §6, §7, §8, §9
Fungicidal efficacy of the mixture of (S)-Azolopyrimidine C in admixture with Azoxystrobin or Trifloxystrobin (4 days residual) against Blumeria graminis on wheat. The tank mixes were obtained from technical material of (S)-Azolopyrimidine C and Azoxystrobin or Trifloxystrobin.

Puccinia recondita [5] = test: Greenhouse, Puccinia recondita on wheat, 4 days residual; details: Example 31
Description: as §1, §2, §3, §4, §10, §5, §6, §7, §8, §9
Fungicidal efficacy of the mixture of (S)-Azolopyrimidine C in admixture with Azoxystrobin or Trifloxystrobin (4 days residual) against Puccinia recondita on wheat. The tank mixes were obtained from technical material of (S)-Azolopyrimidine C and Azoxystrobin or Trifloxystrobin.

Blumeria graminis [6] = test: Greenhouse, Blumeria graminis on barley, 4 days residual; details: Example 32
Description: as §1, §2, §3, §4, §5, §6, §7, §8, §9
Fungicidal efficacy of the mixture of (S)-Azolopyrimidine C in admixture with Azoxystrobin (4 days residual) against Blumeria graminis on barley. The tank mixes were obtained from technical material of (S)-Azolopyrimidine C and Azoxystrobin.

Blumeria graminis [7] = test: Field test, Blumeria graminis on wheat; details: 17 days after application
Description: as §1
For the field study formulated Azolopyrimidine A, B or C and formulated compounds from the classes (A), (B) and (C) were used.
as §8, §9
The compounds are applied according to good agricultural practice in the form of an aqueous spray mix obtained from a concentrated formulation or the technical material at a rate of 400 l/ha. The disease control is evaluated according to the formula given for the greenhouse tests.
(§11) Fungicidal efficacy of the mixture of (S)-Azolopyrimidine C+cyproconazole in the field against Blumeria graminis on wheat 17 days after application The tank mix was obtained from a SC formulation containing 100 g (S)-Azolopyrimidine C per liter and an EC formulation containing 60 g cyproconazole per liter.
as §11, with “C+azoxystrobin” for “C+cyproconazole”, “a SC” for “an EC”, “250” for “60”, “azoxystrobin” for “cyproconazole”, “kg.” for “liter.”
Fungicidal efficacy of the mixture of Azolopyrimidine A and different cereal fungicides in the field against Blumeria graminis on wheat 15 days after application The tank mix was obtained from an SC formulation containing 100 g Azolopyrimidine A per liter and commercially available formulations of metconazole, epoxiconazole or kresoxim methyl, respectively.

Alternaria solani = test: Greenhouse, Alternaria solani on tomatoes, 1 day residual; details: Example 25; rate 16 g/ha
Description: as §1, §2, §3, §4, §10, §5, §6, §7, §8, §9
Fungicidal efficacy of the mixture of Azolopyrimidine C and different fungicides (1 day residual) against Alternaria solani on tomatoes The tank mix was obtained from an SC formulation containing 100 g Azolopyrimidine A per liter and WP formulations of dithianon (750 g/kg), captan (500 g/kg), cyprodinil (750 g/kg), mancozeb (800 g/kg), or a SC formulation of chlorothalonil (500 g/l), or a FS formulation of fenpiclonil (400 g/l), spectively.

Botrytis cinerea = test: Apple fruit Botrytis test, Botrytis cinerea on apple fruits, 3 day residual; details: Example 5
Description: 1. Apples (Malus X domestica Borkh.) variety Golden Delicious are disinfected by washing them briefly in 70% ethanol. After drying the apples are marked with four short equal-distant lines indicating the positions to be wounded.
2. Corresponding with the marks, four holes are poked around the apple equator with a pipette tip. 10 μl of the treatment solution are pipetted into each hole.
3. Three hours after application, 10 μl of a conidial suspension of Botrytis cinerea are pipetted into each. For incubation, the treated/inoculated apples are set up for five days.
4. Disease occurs as rotten apple tissue surrounding the inoculated wounds. The diameter of the rotten zone around each wound is measured.
1. Technical compounds are formulated in a solvent system consisting of 5% acetone and 0.05% Tween 20 in deionized water. Compounds are dissolved in acetone prior to dilution with water. Formulated compounds are prepared using deionized water.
2. Three kinds of controls are included:
Assessments of the diseases took place at the indicated day after the application of the compounds. Per cent infected leaf area infected was evaluated. The efficacy of the compounds/compounds mixtures to control the diseases was calculated by using the formula: [formula]
as §9
Fungicidal efficacy of the mixture of Azolopyrimidine A+vinclozolin (3 day residual) against Botrytis cinerea on apple fruits The tank mix was obtained from technical material of Azolopyrimidine A and a WG formulation containing 500 g vinclozolin per kg.
Fungicidal efficacy of the mixture of Azolopyrimidine A+cyprodinil (3 day residual) against Botrytis cinerea on apple fruits The tank mix was obtained from technical material of Azolopyrimidine A and a WG formulation containing 750 g cyprodinil per kg.
Fungicidal efficacy of the mixture of Azolopyrimidine A+benomyl (3 day residual) against Botrytis cinerea on apple fruits The tank mix was obtained from technical material of Azolopyrimidine A and a WP formulation containing 500 g benomyl per kg.

Erysiphe cichoracearum = test: Greenhouse, Erysiphe cichoracearum on cucumbers, 1 day residual
Description: as §1, §2, §3, §4, §5, §6, §7, §8, §9
Fungicidal efficacy of the mixture of Azolopyrimidine C+triforine (1 day residual) against Erysiphe cichoracearum on cucumbers
the tank mix was obtained from a SC formulation containing 100 g of Azolopyrimidine C per liter and an DC formulation containing and 190 g of triforine per liter.
Fungicidal efficacy of the mixture of Azolopyrimidine C+cyprodinil (1 day residual) against Erysiphe cichoracearum on cucumbers The tank mix was obtained from a SC formulation containing 100 g of Azolopyrimidine C per liter and a WG formulation containing and 750 g of cyprodinil per kg.

Leptosphaeria nodorum = test: Greenhouse, Leptosphaeria nodorum on wheat, 3 day residual; details: Example 1
Description: as §1, §2, §3, §4, §10, §5, §6, §7, §8, §9
Fungicidal efficacy of the mixture of Azolopyrimidine A+fenpropimorph (3 day residual) against Leptosphaeria nodorum on wheat The tank mix was obtained from technical material of Azolopyrimidine A and an EC formulation containing 750 g fenpropimorph per liter.
Fungicidal efficacy of the mixture of Azolopyrimidine A+tebuconazole (3 day residual) against Leptosphaeria nodorum on wheat The tank mix was obtained from technical material of Azolopyrimidine A and an EC formulation containing 250 g tebuconazole per liter.

CO/C=C(/C(=O)OC)c1ccccc1Oc1cc(Oc2ccccc2C#N)ncn1 [Azoxystrobin]
Observed Efficacy (Blumeria graminis [1]; dose rate 1.6 ppm): 0%
Observed Efficacy (Blumeria graminis [1]; dose rate 3.1 ppm): 10%
Observed Efficacy (Blumeria graminis [1]; dose rate 6.3 ppm): 21%
Observed Efficacy (Blumeria graminis [1]; dose rate 12.5 ppm): 49%
Observed Efficacy (Blumeria graminis [1]; dose rate 25 ppm): 73%
Observed Efficacy (Blumeria graminis [1]; dose rate 50 ppm): 87%
Observed Efficacy (Blumeria graminis [2]; dose rate 1.6 ppm): 0%
Observed Efficacy (Blumeria graminis [2]; dose rate 3.1 ppm): 2%
Observed Efficacy (Blumeria graminis [2]; dose rate 6.3 ppm): 21%
Observed Efficacy (Blumeria graminis [2]; dose rate 12.5 ppm): 28%
Observed Efficacy (Blumeria graminis [2]; dose rate 25 ppm): 48%
Observed Efficacy (Blumeria graminis [2]; dose rate 50 ppm): 61%
Observed Efficacy (Puccinia recondita [3]; dose rate 1.6 ppm): 0%
Observed Efficacy (Puccinia recondita [3]; dose rate 3.1 ppm): 25%
Observed Efficacy (Puccinia recondita [3]; dose rate 6.3 ppm): 48%
Observed Efficacy (Puccinia recondita [3]; dose rate 12.5 ppm): 85%
Observed Efficacy (Puccinia recondita [3]; dose rate 25 ppm): 95%
Observed Efficacy (Blumeria graminis [4]; dose rate 3.1 ppm): 0%
Observed Efficacy (Blumeria graminis [4]; dose rate 6.3 ppm): 0%
Observed Efficacy (Blumeria graminis [4]; dose rate 12.5 ppm): 7%
Observed Efficacy (Blumeria graminis [4]; dose rate 25 ppm): 9%
Observed Efficacy (Blumeria graminis [4]; dose rate 50 ppm): 9%
Observed Efficacy (Puccinia recondita [5]; dose rate 3.1 ppm): 0%
Observed Efficacy (Puccinia recondita [5]; dose rate 6.3 ppm): 0%
Observed Efficacy (Puccinia recondita [5]; dose rate 12.5 ppm): 0%
Observed Efficacy (Puccinia recondita [5]; dose rate 25 ppm): 0%
Observed Efficacy (Puccinia recondita [5]; dose rate 50 ppm): 8%
Observed Efficacy (Blumeria graminis [6]; dose rate 1.6 ppm): 0%
Observed Efficacy (Blumeria graminis [6]; dose rate 3.1 ppm): 3%
Observed Efficacy (Blumeria graminis [6]; dose rate 6.3 ppm): 3%
Observed Efficacy (Blumeria graminis [6]; dose rate 12.5 ppm): 3%
Observed Efficacy (Blumeria graminis [6]; dose rate 25 ppm): 2%
Observed Efficacy (Blumeria graminis [6]; dose rate 50 ppm): 9%
Observed Efficacy (Blumeria graminis [7]; azoxystrobin 75 g/ha alone): 49

O=C1C2CC=CCC2C(=O)N1SC(Cl)(Cl)Cl (centres unmarked) [captan]
Observed Efficacy (Alternaria solani): 18%

N#Cc1c(Cl)c(Cl)c(Cl)c(C#N)c1Cl [chlorothalonil]
Observed Efficacy (Alternaria solani): 13%

CC(C1CC1)C(O)(Cn1cncn1)c1ccc(Cl)cc1 (centres unmarked) [cyproconazole]
Observed Efficacy (Blumeria graminis [7]; cyproconazole 15 g/ha alone): 86
Observed Efficacy (Blumeria graminis [7]; cyproconazole 30 g/ha alone): 82

Cc1cc(C2CC2)nc(Nc2ccccc2)n1 [cyprodinil]
Observed Efficacy (Botrytis cinerea; dose rate 0.1 ppm): 2%
Observed Efficacy (Botrytis cinerea; dose rate 1 ppm): 46%
Observed Efficacy (Erysiphe cichoracearum; Example 24, dose rate 4 ppm): 0%
Observed Efficacy (Erysiphe cichoracearum; Example 24, dose rate 16 ppm): 29%
Observed Efficacy (Alternaria solani): 13%

N#Cc1sc2c(=O)c3ccccc3c(=O)c=2sc1C#N [dithianon]
Observed Efficacy (Alternaria solani): 50%

N#Cc1c[nH]cc1-c1cccc(Cl)c1Cl [fenpiclonil]
Observed Efficacy (Alternaria solani): 76%

CC(Cc1ccc(C(C)(C)C)cc1)CN1C[C@@H](C)O[C@@H](C)C1 (some centres unmarked) [fenpropimorph]
Observed Efficacy (Leptosphaeria nodorum; dose rate 0.5 ppm): 19%
Observed Efficacy (Leptosphaeria nodorum; dose rate 5 ppm): 15%

O=CNC(N1CCN(C(NC=O)C(Cl)(Cl)Cl)CC1)C(Cl)(Cl)Cl (centres unmarked) [triforine]
Observed Efficacy (Erysiphe cichoracearum; Example 23, dose rate 4 ppm): 0%
Observed Efficacy (Erysiphe cichoracearum; Example 23, dose rate 16 ppm): 15%

mancozeb
Observed Efficacy (Alternaria solani): 27%
